According to PMC5781198 (Influenza and Other Respiratory Viruses, 2013):
“Also recorded” adds a separate entry of the source.

Legend:
[1] = tested on: A/Puerto Rico/05/2011 NA (D199N); assay type: biochemical, Influenza A(H1N1)pdm09 virus
[2] = tested on: B/Bangladesh/4013/2011 NA (A136S); assay type: biochemical, Influenza B virus (Victoria)
[3] = tested on: A/Vietnam/108/2011 NA (F174V); assay type: biochemical, Influenza A(H1N1)pdm09 virus
[4] = tested on: A/Santiago/15706/2011 NA (G460S); assay type: biochemical, Influenza A(H1N1)pdm09 virus
[5] = tested on: A/Santiago/14689/2011 NA (N325K); assay type: biochemical, Influenza A(H1N1)pdm09 virus
[6] = tested on: B/Ontario/006876/2011 NA (H273Y); settings: cited from earlier work
[7] = tested on: A/Bolivia/603/2011 NA (D151G); assay type: biochemical, Influenza A(H3N2) virus
[8] = molecular target: B/Bangladesh/8008/2011 NA (I120V) (Influenza B virus, UniProt P27907, I119V); assay type: biochemical, Influenza B virus (Victoria)
[9] = tested on: A/Bolivia/258/2011 NA (D199N); assay type: biochemical, Influenza A(H1N1)pdm09 virus
[10] = molecular target: B/Ontario/006876/2011 NA (H273Y) (Influenza B virus, UniProt P27907, H272Y); assay type: biochemical, Influenza B virus (Yamagata)
[11] = molecular target: B/Ontario/1256/2011 NA (G140R, N144K) (Influenza B virus, UniProt P27907, G140R/N143K); assay type: biochemical, Influenza B virus (Victoria)
[12] = tested on: A/Dominican Republic/5507/2011 NA (S247N); assay type: biochemical, Influenza A(H1N1)pdm09 virus
[13] = tested on: B/British Columbia/RV1383/2011 NA (T106N); assay type: biochemical, Influenza B virus (Yamagata)
[14] = molecular target: B/Dominican Republic/5506/2011 NA (H273Y) (Influenza B virus, UniProt P27907, H272Y); assay type: biochemical, Influenza B virus (Victoria)
[15] = tested on: A/Alberta/RV1242/2011 NA (H275H/Y, D199D/N); assay type: biochemical, Influenza A(H1N1)pdm09 virus
[16] = molecular target: B/Guatemala/16/2011 NA (S244P) (Influenza B virus, UniProt P27907, S243P); assay type: biochemical, Influenza B virus (Victoria)
[17] = molecular target: B/Kenya/9528/2011 NA (M403V) (Influenza B virus, UniProt P27907, M402V); assay type: biochemical, Influenza B virus (Victoria)

CCC(CC)[C@H](NC(C)=O)[C@@H]1[C@H](O)[C@@H](C(=O)O)C[C@H]1N=C(N)N [Peramivir, peramivir]
fold difference in IC50 [1]: 0·21 (4) fold
fold difference in IC50 [2]: 4·77 (6) fold
fold difference in IC50 [3]: 0·06 (1) fold
fold difference in IC50 [4]: 0·26 (4) fold
susceptibility in words [5]: mildly reduced sensitivity
susceptibility in words [6]: reduced susceptibility
fold difference in IC50 [7]: 0·08 (1) fold
fold difference in IC50 [8]: 4·36 (5) fold
fold difference in IC50 [9]: 0·09 (2) fold
fold difference in IC50 [10]: 33·49 (62) fold
fold greater IC50 than the mean IC50 for the drug for all B viruses [10]: 44 fold
fold difference in IC50 [11]: 210·68 (257) fold
fold greater IC50 than the mean IC50 for the drug for all B viruses [11]: 277 fold
susceptibility in words [11]: significantly reduced susceptibility
fold difference in IC50 [12]: 0·15 (3) fold
fold difference in IC50 [13]: 0·85 (2) fold
fold difference in IC50 [14]: 12·43 (15) fold
fold greater IC50 than the mean IC50 for the drug for all B viruses [14]: 16 fold
IC50 relative to isolate A/Puerto Rico/09/2011 (dominant H275Y) [15]: approximately threefold less; also recorded: three times less resistant
fold difference in IC50 [16]: 0·60 (1) fold
susceptibility in words [16]: sensitive
fold difference in IC50 [17]: 3·59 (4) fold

CC(=O)N[C@H]1[C@H]([C@H](O)[C@H](O)CO)OC(C(=O)O)=C[C@@H]1N=C(N)N [Zanamivir, zanamivir]
susceptibility in words [5]: mildly reduced sensitivity
susceptibility in words [11]: significantly reduced susceptibility
susceptibility in words [16]: mild outlier
